In patent US6375993B1, “Pomegranate extracts and methods of using thereof” (priority 1999, dated 2002):

Assay: Copper-ions chelating capacity (LDL oxidation at increasing CuSO4)
Assay type: biochemical
Conditions: 25 μmol/L of EDTA; TBARS, two hours, 37° C.
Description: In order to examine whether pomegranate juice inhibits LDL oxidation by chelation of metal ions, LDL (100 mg of protein/L) was incubated with 0.2 mL of pomegranate juice/L (0.56 μmol of polyphenols/L) in the presence of increasing concentrations of copper ions. Incubation of LDL with 25 μmol/L of Na2 EDTA served as a positive control, as EDTA is a potent chelator of metal ions. […] At higher copper ion concentrations, EDTA could no longer overcome the pro-oxidative effect of CuSO4.

## O=C([O-])CN(CCN(CC(=O)[O-])CC(=O)O)CC(=O)O.[Na+].[Na+] [EDTA, Na2 EDTA]
  CuSO4 concentration up to which copper ion-induced LDL oxidation was inhibited: up to 40 μmol/L
